For one cell line, relative viability results are on record in the supplement of paper PMC10307832.

Common to all, as to test: relative viability (nuclei count vs DMSO), 5 days (fraction); higher = more cells survive
Compound in the assay “AZ3146 + Dasatinib”: CN1CCC(CC1)OC2=CC(=C(C=C2)NC3=NC=C4C(=N3)N(C(=O)N4C)C5CCCC5)OC [AZ3146] + Cc1nc(Nc2ncc(C(=O)Nc3c(C)cccc3Cl)s2)cc(N2CCN(CCO)CC2)n1 [Dasatinib] (partner 0.075 µM)
Put shortly:
(§1)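 Relative viability was taken as the ratio of nuclei in treated wells to nuclei in vehicle wells. Lung cancer cell lines in 1536-well plates received compounds by pin tool one day after seeding, either one drug alone or a fixed anchor-drug dose plus five library-drug doses (not always all listed) in √10 steps. Nuclei were counted on 4× images after 5 days of treatment, and values are medians of duplicate plates.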

Compound in the assay “GSK-J4 + Navitoclax”: CCOC(=O)CCNc1cc(N2CCc3ccccc3CC2)nc(-c2ccccn2)n1 [GSK-J4] + CC1(C)CCC(c2ccc(Cl)cc2)=C(CN2CCN(c3ccc(C(=O)NS(=O)(=O)c4ccc(N[C@H](CCN5CCOCC5)CSc5ccccc5)c(S(=O)(=O)C(F)(F)F)c4)cc3)CC2)C1 [Navitoclax] (partner 0.5 µM)
Put shortly:
as §1

Compound in the assay “GSK-J4 + Olaparib”: CCOC(=O)CCNc1cc(N2CCc3ccccc3CC2)nc(-c2ccccn2)n1 [GSK-J4] + O=C(c1cc(Cc2n[nH]c(=O)c3ccccc23)ccc1F)N1CCN(C(=O)C2CC2)CC1 [Olaparib] (partner 8 µM)
Put shortly:
as §1

Compound in the assay “GSK-J4 + Pictilisib”: CCOC(=O)CCNc1cc(N2CCc3ccccc3CC2)nc(-c2ccccn2)n1 [GSK-J4] + CS(=O)(=O)N1CCN(Cc2cc3nc(-c4cccc5[nH]ncc45)nc(N4CCOCC4)c3s2)CC1 [Pictilisib] (partner 1 µM)
Put shortly:
as §1

In the case of UMC-11, the relative viability with AZ3146 + Dasatinib (first compound 0.08 µM) worked out at 0.426; in the assay with AZ3146 + Dasatinib (first compound 0.253 µM), 0.562; with AZ3146 + Dasatinib (first compound 0.8 µM), 0.463; with AZ3146 + Dasatinib (first compound 2.53 µM) it was 0.452; in the assay with AZ3146 + Dasatinib (first compound 8 µM), 0.257; with GSK-J4 + Navitoclax (first compound 0.5 µM), 0.332. In addition, the relative viability in the assay with GSK-J4 + Navitoclax (first compound 1.581 µM) amounted to 0.233; with GSK-J4 + Navitoclax (first compound 5 µM) it was 0.341; in the assay with GSK-J4 + Navitoclax (first compound 15.81 µM), 0.305; with GSK-J4 + Navitoclax (first compound 50 µM), 0.179; with GSK-J4 + Olaparib (first compound 0.5 µM), 0.364; with GSK-J4 + Olaparib (first compound 1.581 µM), 0.324. For the same cell line, the relative viability with GSK-J4 + Olaparib (first compound 5 µM) is 0.299; with GSK-J4 + Olaparib (first compound 15.81 µM), 0.353; with GSK-J4 + Olaparib (first compound 50 µM) it was 0.272; with GSK-J4 + Pictilisib (first compound 0.5 µM), 0.739; in the assay with GSK-J4 + Pictilisib (first compound 1.581 µM), 0.527; with GSK-J4 + Pictilisib (first compound 5 µM), 0.499. Besides, the relative viability worked out at 0.9 in the assay with GSK-J4 + Pictilisib (first compound 15.81 µM) and 0.256 with GSK-J4 + Pictilisib (first compound 50 µM).
